# In publication PMC6409085, “Three odorant-binding proteins are involved in the behavioral response of Sogatella furcifera to rice plant volatiles” (PeerJ, 2019):
# pIC50: −log10 of the molar value. Where “and” joins values, the source holds several entries; their conditions need not be identical. Identical values can stand only once.
# What was measured:
# S. furcifera adults = experiment: Y-tube olfactometer behavioral trials; type: in vivo, Sogatella furcifera; conditions: odorant 50 µL/L vs hexane; adults
# Outline: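 Single S. furcifera adults (2 days post-emergence, starved 0.5 h) chose between odorant (100 µL of 50 µL/L on filter paper) and hexane control in a glass Y-tube, charcoal-filtered humidified air 300 mL/min per arm, 25 ± 1 °C, 50% RH. Choice scored if insect passed half an arm and stayed >1 min within 10 min; 45 insects per compound, chi-squared test.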
# SfurOBP2 = SfurOBP2 (Sogatella furcifera, UniProt V5T759); experiment: biochemical; type: binding
# SfurOBP2, sequence (V5T759 entry or part of it): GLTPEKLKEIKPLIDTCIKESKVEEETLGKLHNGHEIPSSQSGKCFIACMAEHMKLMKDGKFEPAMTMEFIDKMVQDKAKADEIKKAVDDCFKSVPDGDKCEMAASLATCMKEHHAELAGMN
# Outline: (§1)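 K1-NPN came from titrating 2.0 µM protein (50 mM Tris-HCl, pH 7.4) with 1-NPN. Odorants at 2-20 µM then competed against 2.0 µM protein plus 2.0 µM 1-NPN for 2 min, with excitation at 337 nm and emission recorded over 390-490 nm. IC50 values were converted to Ki via Ki = IC50/(1 + [1-NPN]/K1-NPN).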
# SfurOBP11 = SfurOBP11 (Sogatella furcifera, UniProt V5T6E3); experiment: biochemical; type: binding
# SfurOBP11, sequence (V5T6E3 entry or part of it): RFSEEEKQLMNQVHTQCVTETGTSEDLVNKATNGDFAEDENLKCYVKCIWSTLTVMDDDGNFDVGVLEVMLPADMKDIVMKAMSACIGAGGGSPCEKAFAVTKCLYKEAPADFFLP
# Outline: as §1
# SfurOBP3 = SfurOBP3 (Sogatella furcifera, UniProt V5T818); experiment: biochemical; type: binding; conditions: for Fluorescence competitive binding assay, fluorescence intensity: OBP3, three replicate columns
# SfurOBP3, sequence (V5T818 entry or part of it): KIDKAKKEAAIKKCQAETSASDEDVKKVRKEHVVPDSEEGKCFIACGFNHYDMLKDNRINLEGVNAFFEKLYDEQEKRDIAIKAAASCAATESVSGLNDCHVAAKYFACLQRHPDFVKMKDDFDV
# Outline: as §1
# SfurOBP1 = SfurOBP1 (Sogatella furcifera, UniProt V5T8N5); experiment: biochemical; type: binding; conditions: for Fluorescence competitive binding assay, fluorescence intensity: OBP1, three replicate columns
# SfurOBP1, sequence (V5T8N5 entry or part of it): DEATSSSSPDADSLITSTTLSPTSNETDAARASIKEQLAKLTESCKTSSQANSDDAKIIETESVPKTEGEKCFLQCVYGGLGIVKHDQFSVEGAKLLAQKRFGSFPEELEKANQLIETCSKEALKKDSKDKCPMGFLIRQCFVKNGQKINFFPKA
# Outline: as §1
compound,measurement,setting,value
Cc1ccc(C(C)C)cc1 [4-isopropyltoluene],number of insects choosing hexane arm,S. furcifera adults,13
same,number of insects choosing volatilies arm,S. furcifera adults,11
same,number of insects failed (no choice),S. furcifera adults,16
same,pIC50,SfurOBP2,< 4.70
same,"Fluorescence competitive binding assay, OBP2 (raw fluorescence reading)","SfurOBP2; ligand concentration 2 (unit not given), replicate column 1 of 3",17529
same,"Fluorescence competitive binding assay, OBP2 (raw fluorescence reading)","SfurOBP2; ligand concentration 2 (unit not given), replicate column 2 of 3",17068
same,"Fluorescence competitive binding assay, OBP2 (raw fluorescence reading)","SfurOBP2; ligand concentration 2 (unit not given), replicate column 3 of 3",16667
same,"Fluorescence competitive binding assay, OBP2 (raw fluorescence reading)","SfurOBP2; ligand concentration 4 (unit not given), replicate column 1 of 3",17068
same,"Fluorescence competitive binding assay, OBP2 (raw fluorescence reading)","SfurOBP2; ligand concentration 4 (unit not given), replicate column 2 of 3",16662
same,"Fluorescence competitive binding assay, OBP2 (raw fluorescence reading)","SfurOBP2; ligand concentration 4 (unit not given), replicate column 3 of 3",16270
same,"Fluorescence competitive binding assay, OBP2 (raw fluorescence reading)","SfurOBP2; ligand concentration 6 (unit not given), replicate column 1 of 3",17127
same,"Fluorescence competitive binding assay, OBP2 (raw fluorescence reading)","SfurOBP2; ligand concentration 6 (unit not given), replicate column 2 of 3",17348
same,"Fluorescence competitive binding assay, OBP2 (raw fluorescence reading)","SfurOBP2; ligand concentration 6 (unit not given), replicate column 3 of 3",16845
same,"Fluorescence competitive binding assay, OBP2 (raw fluorescence reading)","SfurOBP2; ligand concentration 8 (unit not given), replicate column 1 of 3",17260
same,"Fluorescence competitive binding assay, OBP2 (raw fluorescence reading)","SfurOBP2; ligand concentration 8 (unit not given), replicate column 2 of 3",16330
same,"Fluorescence competitive binding assay, OBP2 (raw fluorescence reading)","SfurOBP2; ligand concentration 8 (unit not given), replicate column 3 of 3",16495
same,"Fluorescence competitive binding assay, OBP2 (raw fluorescence reading)","SfurOBP2; ligand concentration 10 (unit not given), replicate column 1 of 3",16487
same,"Fluorescence competitive binding assay, OBP2 (raw fluorescence reading)","SfurOBP2; ligand concentration 10 (unit not given), replicate column 2 of 3",17551
same,"Fluorescence competitive binding assay, OBP2 (raw fluorescence reading)","SfurOBP2; ligand concentration 10 (unit not given), replicate column 3 of 3",16673
same,"Fluorescence competitive binding assay, OBP2 (raw fluorescence reading)","SfurOBP2; ligand concentration 12 (unit not given), replicate column 1 of 3",14433
same,"Fluorescence competitive binding assay, OBP2 (raw fluorescence reading)","SfurOBP2; ligand concentration 12 (unit not given), replicate column 2 of 3",15818
same,"Fluorescence competitive binding assay, OBP2 (raw fluorescence reading)","SfurOBP2; ligand concentration 12 (unit not given), replicate column 3 of 3",14693
same,"Fluorescence competitive binding assay, OBP2 (raw fluorescence reading)","SfurOBP2; ligand concentration 14 (unit not given), replicate column 1 of 3",14333
same,"Fluorescence competitive binding assay, OBP2 (raw fluorescence reading)","SfurOBP2; ligand concentration 14 (unit not given), replicate column 2 of 3",14565
same,"Fluorescence competitive binding assay, OBP2 (raw fluorescence reading)","SfurOBP2; ligand concentration 14 (unit not given), replicate column 3 of 3",13503
same,"Fluorescence competitive binding assay, OBP2 (raw fluorescence reading)","SfurOBP2; ligand concentration 16 (unit not given), replicate column 1 of 3",12972
same,"Fluorescence competitive binding assay, OBP2 (raw fluorescence reading)","SfurOBP2; ligand concentration 16 (unit not given), replicate column 2 of 3",13456
same,"Fluorescence competitive binding assay, OBP2 (raw fluorescence reading)","SfurOBP2; ligand concentration 16 (unit not given), replicate column 3 of 3",13282
same,"Fluorescence competitive binding assay, OBP2 (raw fluorescence reading)","SfurOBP2; ligand concentration 18 (unit not given), replicate column 1 of 3",13043
same,"Fluorescence competitive binding assay, OBP2 (raw fluorescence reading)","SfurOBP2; ligand concentration 18 (unit not given), replicate column 2 of 3",13102
same,"Fluorescence competitive binding assay, OBP2 (raw fluorescence reading)","SfurOBP2; ligand concentration 18 (unit not given), replicate column 3 of 3",13475
same,"Fluorescence competitive binding assay, OBP2 (raw fluorescence reading)","SfurOBP2; ligand concentration 20 (unit not given), replicate column 1 of 3",13105
same,"Fluorescence competitive binding assay, OBP2 (raw fluorescence reading)","SfurOBP2; ligand concentration 20 (unit not given), replicate column 2 of 3",12354
same,"Fluorescence competitive binding assay, OBP2 (raw fluorescence reading)","SfurOBP2; ligand concentration 20 (unit not given), replicate column 3 of 3",13093
same,pIC50,SfurOBP11,< 4.70
same,"Fluorescence intensity, fluorescence competitive binding assay, OBP11","SfurOBP11; ligand concentration 2, replicate 1",35978
same,"Fluorescence intensity, fluorescence competitive binding assay, OBP11","SfurOBP11; ligand concentration 2, replicate 2",29566
same,"Fluorescence intensity, fluorescence competitive binding assay, OBP11","SfurOBP11; ligand concentration 2, replicate 3",32252
same,"Fluorescence intensity, fluorescence competitive binding assay, OBP11","SfurOBP11; ligand concentration 4, replicate 1",30015
same,"Fluorescence intensity, fluorescence competitive binding assay, OBP11","SfurOBP11; ligand concentration 4, replicate 2",32067
same,"Fluorescence intensity, fluorescence competitive binding assay, OBP11","SfurOBP11; ligand concentration 4, replicate 3",31035
same,"Fluorescence intensity, fluorescence competitive binding assay, OBP11","SfurOBP11; ligand concentration 6, replicate 1",30703
same,"Fluorescence intensity, fluorescence competitive binding assay, OBP11","SfurOBP11; ligand concentration 6, replicate 2",29596
same,"Fluorescence intensity, fluorescence competitive binding assay, OBP11","SfurOBP11; ligand concentration 6, replicate 3",29854
same,"Fluorescence intensity, fluorescence competitive binding assay, OBP11","SfurOBP11; ligand concentration 8, replicate 1",26981
same,"Fluorescence intensity, fluorescence competitive binding assay, OBP11","SfurOBP11; ligand concentration 8, replicate 2",27991
same,"Fluorescence intensity, fluorescence competitive binding assay, OBP11","SfurOBP11; ligand concentration 8, replicate 3",25842
same,"Fluorescence intensity, fluorescence competitive binding assay, OBP11","SfurOBP11; ligand concentration 10, replicate 1",25875
same,"Fluorescence intensity, fluorescence competitive binding assay, OBP11","SfurOBP11; ligand concentration 10, replicate 2",25879
same,"Fluorescence intensity, fluorescence competitive binding assay, OBP11","SfurOBP11; ligand concentration 10, replicate 3",25958
same,"Fluorescence intensity, fluorescence competitive binding assay, OBP11","SfurOBP11; ligand concentration 12, replicate 1",23828
same,"Fluorescence intensity, fluorescence competitive binding assay, OBP11","SfurOBP11; ligand concentration 12, replicate 2",23071
same,"Fluorescence intensity, fluorescence competitive binding assay, OBP11","SfurOBP11; ligand concentration 12, replicate 3",23450
same,"Fluorescence intensity, fluorescence competitive binding assay, OBP11","SfurOBP11; ligand concentration 14, replicate 1",21639
same,"Fluorescence intensity, fluorescence competitive binding assay, OBP11","SfurOBP11; ligand concentration 14, replicate 2",22165
same,"Fluorescence intensity, fluorescence competitive binding assay, OBP11","SfurOBP11; ligand concentration 14, replicate 3",24226
same,"Fluorescence intensity, fluorescence competitive binding assay, OBP11","SfurOBP11; ligand concentration 16, replicate 1",19389
same,"Fluorescence intensity, fluorescence competitive binding assay, OBP11","SfurOBP11; ligand concentration 16, replicate 2",17044
same,"Fluorescence intensity, fluorescence competitive binding assay, OBP11","SfurOBP11; ligand concentration 16, replicate 3",20238
same,"Fluorescence intensity, fluorescence competitive binding assay, OBP11","SfurOBP11; ligand concentration 18, replicate 1",24841
same,"Fluorescence intensity, fluorescence competitive binding assay, OBP11","SfurOBP11; ligand concentration 18, replicate 2",23918
same,"Fluorescence intensity, fluorescence competitive binding assay, OBP11","SfurOBP11; ligand concentration 18, replicate 3",23440
same,"Fluorescence intensity, fluorescence competitive binding assay, OBP11","SfurOBP11; ligand concentration 20, replicate 1",24558
same,"Fluorescence intensity, fluorescence competitive binding assay, OBP11","SfurOBP11; ligand concentration 20, replicate 2",23570
same,"Fluorescence intensity, fluorescence competitive binding assay, OBP11","SfurOBP11; ligand concentration 20, replicate 3",24060
same,pIC50,SfurOBP3,< 4.70
same,"Fluorescence competitive binding assay, fluorescence intensity",SfurOBP3; ligand concentration 2,76459 and 72745 and 73014
same,"Fluorescence competitive binding assay, fluorescence intensity",SfurOBP3; ligand concentration 4,75454 and 75539 and 76517
same,"Fluorescence competitive binding assay, fluorescence intensity",SfurOBP3; ligand concentration 6,77021 and 76644 and 73341
same,"Fluorescence competitive binding assay, fluorescence intensity",SfurOBP3; ligand concentration 8,70448 and 67651 and 65820
same,"Fluorescence competitive binding assay, fluorescence intensity",SfurOBP3; ligand concentration 10,65984 and 64535 and 66083
same,"Fluorescence competitive binding assay, fluorescence intensity",SfurOBP3; ligand concentration 12,59229 and 62714 and 59705
same,"Fluorescence competitive binding assay, fluorescence intensity",SfurOBP3; ligand concentration 14,51855 and 54624 and 58162
same,"Fluorescence competitive binding assay, fluorescence intensity",SfurOBP3; ligand concentration 16,47509 and 50343 and 51946
same,"Fluorescence competitive binding assay, fluorescence intensity",SfurOBP3; ligand concentration 18,53658 and 55976 and 54775
same,"Fluorescence competitive binding assay, fluorescence intensity",SfurOBP3; ligand concentration 20,49838 and 49582 and 48822
same,pIC50,SfurOBP1,< 4.70
same,"Fluorescence competitive binding assay, fluorescence intensity",SfurOBP1; ligand concentration 2 (μM),7244 and 8974 and 9151
same,"Fluorescence competitive binding assay, fluorescence intensity",SfurOBP1; ligand concentration 4 (μM),8883 and 8922 and 8958
same,"Fluorescence competitive binding assay, fluorescence intensity",SfurOBP1; ligand concentration 6 (μM),7592 and 6723 and 7351
same,"Fluorescence competitive binding assay, fluorescence intensity",SfurOBP1; ligand concentration 8 (μM),6920 and 7774 and 7302
same,"Fluorescence competitive binding assay, fluorescence intensity",SfurOBP1; ligand concentration 10 (μM),7780 and 7649 and 7941
same,"Fluorescence competitive binding assay, fluorescence intensity",SfurOBP1; ligand concentration 12 (μM),6330 and 8293 and 7991
same,"Fluorescence competitive binding assay, fluorescence intensity",SfurOBP1; ligand concentration 14 (μM),6493 and 6423 and 6689
same,"Fluorescence competitive binding assay, fluorescence intensity",SfurOBP1; ligand concentration 16 (μM),5419 and 7344 and 6052
same,"Fluorescence competitive binding assay, fluorescence intensity",SfurOBP1; ligand concentration 18 (μM),6795 and 8973 and 7227
same,"Fluorescence competitive binding assay, fluorescence intensity",SfurOBP1; ligand concentration 20 (μM),8723 and 7567 and 6306
